Among the data in patent publication EP2070521A1, “Surface-modified nanoparticles” (Bayer Schering Pharma Aktiengesellschaft, priority 2007, dated 2009) are Kp values, retold here.

The series in a line: in vivo. Conditions: male, NMRI nu/nu, mouse, iv, 8 mg/kg.

Compound `C=CC[C@H]1C(=O)C(C)(C)[C@@H](O)CC(=O)O[C@H](c2ccc3sc(C)nc3c2)C[C@@H]2O[C@]2(C)CCC[C@H](C)[C@@H]1O` [epothilone, (1S,3S,7S, 10R,11S,12S,16R)-7,11-dihydroxy-10-(prop-2-en-1-yl)-3-(2-methyl-benzothiazol-5-yl)-8,8,12,16-tetramethyl-4,17-dioxabicyclo[14.1.0]heptadecane-5,9-dione] displayed a Kp at 1 h of 16.3, a Kp at 2 h of 29.1 and a Kp at 4 h of 27.7.
